{"source": "patent US20210052633A1", "about": "“HYALURONIC ACID SYNTHESIS PROMOTER, METHOD FOR PROMOTING HYALURONIC ACID SYNTHESIS, AND CELL EVALUATION METHOD” (SEIKAGAKU CORPORATION, priority 2018, published 2021)", "key": {"[1]": {"tested_on": "Human synovial cells derived from a patient with rheumatism (HFLS-RA)", "test": "Hyaluronic acid synthesis by synovial cells ([3H] glucosamine incorporation, HPLC fractionation by molecular weight)", "type": "cell-based", "method": "Compound 1 or sodium hyaluronate (HA) (ARTZ Dispo (registered trademark) (manufactured by Seikagaku Corporation)) was mixed in a solution containing a phosphate buffer solution (GIBCO) and an α-MEM (GIBCO) concentrated medium. Further, each reagent was added and mixed in the resulting solution so that the final concentrations were as follows: 10% (v/v) fetal bovine serum (hereinafter FBS (MP Biomedicals)), 10 ng/mL recombinant human IL-1β/IL-1F2 (hereinafter IL-1β (R & D Systems)), 1% (w/v) penicillin/streptomycin (GIBCO), and 370 kBq/mL [^3H] glucosamine (Perkin Elmer). As a result, the following five solutions were obtained as test substances.\nHuman synovial cells derived from a patient with rheumatism (HFLS-RA, CELL APPLICATIONS, INC.) were subcultured and grown in a 175-cm^2 flask. In the cell culture, Basal medium (containing 10% (v/v) Growth supplement and 1% (w/v) penicillin/streptomycin) (manufactured by Cell Applications, Inc.) was used. Thereafter, the cells were seeded in a 6-well plate at 3.0×10^5 cells/2 mL/well and cultured for about 24 hours until confluence was reached. In the cell culture, α-MEM medium (containing 10% (v/v) FBS and 1% (w/v) penicillin/streptomycin) was used. After removing the culture supernatant, 2 mL of the test substance was added to the cells, and the cells were further cultured for 48 hours. The culture was performed at 37° C. in a CO2 incubator (5% (v/v) CO2). After completion of the culture, the culture supernatant was collected and cryopreserved in an ultra-low temperature freezer until measurement.\nSince glucosamine is a constituent monosaccharide of hyaluronic acid, in hyaluronic acid newly synthesized in the cells after addition of the test substance, [^3H] glucosamine is incorporated. Therefore, hyaluronic acid in the collected culture supernatant was separated according to molecular weight using HPLC, and fractions were collected every 0.5 minutes using a fraction collector. To each of the collected fractions, 0.5 mL of a scintillation fluid was added and mixed. Thereafter, the radioactivity (dpm, disintegrations per minute) of each fraction was measured using a scintillation counter, and the radioactivity (the amount of [^3H] glucosamine incorporated into newly produced hyaluronic acid) was evaluated. The HPLC conditions are as follows.\nMobile phase: a solution of 5 mmol/L phosphate buffer solution (pH 6.0) with 0.82% (w/v) NaCl:acetonitrile=2:1 (v:v)\nColumn: OH pak SB-805 HQ column (Shodex (registered trademark)), column temperature: 35° C.\nThe hyaluronic acid standard solution was separated by HPLC, and UV absorption at a wavelength of 210 nm was measured. Fraction No. in which the peak top of the hyaluronic acid standard solution of each molecular weight is collected was calculated. As the hyaluronic acid standard solutions, Select-HATM 500 k (average molecular weight: 528,000), Select-HATM 1,000 k (average molecular weight: 1,076,000), and Select-HATM 2,500 k (average molecular weight: 2,420,000) were used.\nThe same procedure as in Example 1 was performed. Note that the culture supernatant was collected at respective time points (8, 24, 36, 48, and 72 hours) after adding the test substance to the cells.\nA control solution, a 0.01% (w/v %) compound 1 solution, and a 0.01% (w/v %) sodium hyaluronate (HA) solution were prepared in the same manner as in Example 1. DF-Na (0.014 μg/mL, 0.14 μg/mL, 1.4 μg/mL, and 14 μg/mL) solutions were prepared by dissolving DF-Na in the control solution. Further, a HA+DF-Na mixed liquid was obtained by dissolving DF-Na (1.4 μg/mL) in the 0.01% (w/v %) sodium hyaluronate (HA) solution.\n(§1) The same procedure as in Example 1 was performed.\nThe same procedure as in Example 1 was performed. Note that a column (OH pak SB-807 HQ column (Shodex (registered trademark)) having higher separability on the high molecular weight side than the HPLC column (OH pak SB-805 HQ column (Shodex (registered trademark)) was used."}, "[2]": {"tested_on": "Human synovial cells derived from a patient with rheumatism (HFLS-RA)", "test": "Hyaluronidase treatment of culture supernatant, then fractionation and radioactivity measurement", "type": "cell-based", "details": "Example 2, 0.01% (w/v)", "method": "It was verified that the substance whose synthesis was promoted by the action of the compound 1 is hyaluronic acid by confirming the presence or absence of degradation by a hyaluronic acid-degrading enzyme (hyaluronidase).\nas §1\nThe culture supernatant (90 μL) collected after adding the 0.01% HA solution and 10 μL of 100 TRU/mL hyaluronidase (or water for injection) were mixed and reacted overnight at 37° C., thereby performing a hyaluronidase treatment. The culture supernatant (90 μL) collected after adding the 0.01% compound 1 solution and 30 μL of 100 TRU/mL hyaluronidase (or water for injection) were mixed and reacted at 60° C. for 3 hours, thereby performing a hyaluronidase treatment. The hyaluronidase (derived from an actinomycetes) was purchased from Seikagaku Biobusiness Corporation."}}}
{"substance": "Aminoethanol-diclofenac-introduced sodium hyaluronate [compound 1]", "values": [{"measurement": "action of promoting the synthesis of high molecular weight hyaluronic acid", "setting": "[1]; Example 1, HFLS-RA, 0.1% and 0.01% (w/v), 48 hours", "result": "has an action of promoting the synthesis of high molecular weight hyaluronic acid"}, {"measurement": "molecular weight peak of hyaluronic acid produced", "setting": "[1]; Example 1, HFLS-RA, IL-1β, 0.1% and 0.01% (w/v) test substance, 48 hours, SB-805 HQ column, control peak in the vicinity of 500,000", "result": "high molecular weight exceeding the molecular weight of hyaluronic acid produced in the HA group"}, {"measurement": "molecular weight peak of hyaluronic acid produced", "setting": "[1]; Example 3, HFLS-RA, 0.1% (w/v), 8, 24, 36, 48 and 72 hours, control in the vicinity of 500,000", "result": "higher molecular weight than that in the HA groups"}, {"measurement": "content of hyaluronic acid over time", "setting": "[1]; Example 3, HFLS-RA, 0.1% (w/v), 8 to 72 hours", "result": "increases over time"}, {"measurement": "molecular weight peak of hyaluronic acid produced", "setting": "[1]; Example 4, HFLS-RA, 0.01% (w/v), 48 hours, control in the vicinity of 500,000", "result": "more prominent than in the HA group"}, {"measurement": "molecular weight peak of hyaluronic acid produced", "setting": "[1]; Example 5, synovial cells from three patients with rheumatism, 0.01% (w/v), 48 hours, SB-807 HQ column", "result": "~2,400,000"}, {"measurement": "peak of the high molecular weight radioactive substance after hyaluronidase treatment", "setting": "[2]; hyaluronidase (+)", "result": "disappearance of the peak"}, {"measurement": "production and molecular weight of high molecular weight radioactive substance", "setting": "[2]; hyaluronidase (−)", "result": "higher molecular weight than the radioactive substance in the 0.01% HA (hyaluronidase (−)) group"}]}
